Experimental data from US6423689B1, “Peptidyl calcium channel blockers” (Warner-Lambert Company, priority 1997, dated 2002).

Target: T1, N-type Ca2+ channels in IMR-32 cells (Homo sapiens, UniProt Q00975)
T1 construct: host or cells: IMR-32 cells, differentiated with dibutyryl cAMP and bromodeoxyuridine
Experiment: Inhibition of N-type calcium flux in IMR-32 cells (Indo-1 fluorescence, nitrendipine present)
Assay type: cell-based
Conditions: for inhibition at 1 µM / inhibition at 10 µM: IMR-32; for IC50: IMR-32 cells, 5 μM nitrendipine, K+ depolarization
In short: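 Differentiated IMR-32 cells (7–13 days) were loaded with 5 μM Indo-1 AM, preincubated with compound for 10 min at 30° C, and depolarized with KCl/CaCl2 stimulation solution, with 5 μM nitrendipine blocking L-channels. Peak-minus-basal 400/490 nm emission ratio was plotted against drug concentration, and IC50 came from four-parameter logistic fits.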

T1 sequence (Q00975 whole entry): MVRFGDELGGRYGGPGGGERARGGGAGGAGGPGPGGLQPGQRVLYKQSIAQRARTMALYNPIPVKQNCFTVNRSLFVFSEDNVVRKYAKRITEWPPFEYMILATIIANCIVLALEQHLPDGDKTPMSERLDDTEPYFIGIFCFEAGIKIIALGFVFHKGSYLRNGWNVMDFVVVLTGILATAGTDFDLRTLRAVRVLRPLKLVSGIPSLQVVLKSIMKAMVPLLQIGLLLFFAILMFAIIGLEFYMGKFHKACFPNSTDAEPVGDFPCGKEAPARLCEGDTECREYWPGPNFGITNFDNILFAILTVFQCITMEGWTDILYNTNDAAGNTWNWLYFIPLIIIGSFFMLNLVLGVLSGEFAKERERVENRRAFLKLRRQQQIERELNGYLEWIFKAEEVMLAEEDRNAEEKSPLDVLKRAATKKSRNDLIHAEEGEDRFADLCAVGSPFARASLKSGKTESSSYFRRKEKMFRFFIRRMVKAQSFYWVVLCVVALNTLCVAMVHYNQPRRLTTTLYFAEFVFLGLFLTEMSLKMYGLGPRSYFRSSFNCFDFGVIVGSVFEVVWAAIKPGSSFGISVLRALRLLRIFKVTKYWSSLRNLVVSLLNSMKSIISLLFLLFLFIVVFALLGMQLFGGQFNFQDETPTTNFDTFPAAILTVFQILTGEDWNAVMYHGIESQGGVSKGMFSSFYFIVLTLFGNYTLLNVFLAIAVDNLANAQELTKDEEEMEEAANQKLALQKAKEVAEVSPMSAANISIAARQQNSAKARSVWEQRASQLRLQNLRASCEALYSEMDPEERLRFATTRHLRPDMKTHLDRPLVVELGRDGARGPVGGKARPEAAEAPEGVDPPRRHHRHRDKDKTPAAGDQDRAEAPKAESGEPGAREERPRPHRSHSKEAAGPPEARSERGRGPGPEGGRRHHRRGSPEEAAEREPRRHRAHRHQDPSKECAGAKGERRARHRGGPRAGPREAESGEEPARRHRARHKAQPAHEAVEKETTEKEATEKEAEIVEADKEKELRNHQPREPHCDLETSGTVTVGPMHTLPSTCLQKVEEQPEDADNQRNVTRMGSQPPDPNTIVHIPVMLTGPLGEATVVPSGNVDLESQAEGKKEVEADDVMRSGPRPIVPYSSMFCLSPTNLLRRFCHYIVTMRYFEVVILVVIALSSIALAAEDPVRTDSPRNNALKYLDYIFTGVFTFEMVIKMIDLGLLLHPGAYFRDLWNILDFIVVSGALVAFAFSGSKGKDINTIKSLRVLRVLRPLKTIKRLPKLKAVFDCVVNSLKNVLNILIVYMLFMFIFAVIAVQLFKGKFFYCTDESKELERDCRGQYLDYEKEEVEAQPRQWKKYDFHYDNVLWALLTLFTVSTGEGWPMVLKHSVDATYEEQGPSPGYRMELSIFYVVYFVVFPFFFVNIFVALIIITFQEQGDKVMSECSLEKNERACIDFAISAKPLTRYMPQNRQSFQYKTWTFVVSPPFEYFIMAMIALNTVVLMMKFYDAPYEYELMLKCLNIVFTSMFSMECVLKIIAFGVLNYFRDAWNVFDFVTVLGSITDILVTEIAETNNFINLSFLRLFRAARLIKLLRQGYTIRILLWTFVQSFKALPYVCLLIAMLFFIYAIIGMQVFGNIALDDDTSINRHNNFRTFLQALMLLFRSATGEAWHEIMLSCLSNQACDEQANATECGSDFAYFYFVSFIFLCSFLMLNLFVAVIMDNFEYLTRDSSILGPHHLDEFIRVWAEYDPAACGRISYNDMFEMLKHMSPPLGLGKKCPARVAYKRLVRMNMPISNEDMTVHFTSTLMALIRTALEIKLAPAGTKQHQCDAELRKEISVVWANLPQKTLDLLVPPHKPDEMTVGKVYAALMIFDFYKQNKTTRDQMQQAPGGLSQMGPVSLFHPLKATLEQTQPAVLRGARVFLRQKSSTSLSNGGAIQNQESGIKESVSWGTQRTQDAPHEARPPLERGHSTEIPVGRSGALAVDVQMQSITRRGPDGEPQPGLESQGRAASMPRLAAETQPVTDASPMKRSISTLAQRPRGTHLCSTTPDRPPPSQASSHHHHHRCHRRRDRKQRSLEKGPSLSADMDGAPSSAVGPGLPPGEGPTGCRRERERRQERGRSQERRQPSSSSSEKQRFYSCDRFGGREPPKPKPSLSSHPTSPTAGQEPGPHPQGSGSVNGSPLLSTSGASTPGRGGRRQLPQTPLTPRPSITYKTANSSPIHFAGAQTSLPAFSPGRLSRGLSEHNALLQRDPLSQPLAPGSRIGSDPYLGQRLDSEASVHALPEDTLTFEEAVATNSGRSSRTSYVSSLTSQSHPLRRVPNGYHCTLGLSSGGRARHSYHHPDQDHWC
T1 sequence (P54289 25-956 partner limits assumed): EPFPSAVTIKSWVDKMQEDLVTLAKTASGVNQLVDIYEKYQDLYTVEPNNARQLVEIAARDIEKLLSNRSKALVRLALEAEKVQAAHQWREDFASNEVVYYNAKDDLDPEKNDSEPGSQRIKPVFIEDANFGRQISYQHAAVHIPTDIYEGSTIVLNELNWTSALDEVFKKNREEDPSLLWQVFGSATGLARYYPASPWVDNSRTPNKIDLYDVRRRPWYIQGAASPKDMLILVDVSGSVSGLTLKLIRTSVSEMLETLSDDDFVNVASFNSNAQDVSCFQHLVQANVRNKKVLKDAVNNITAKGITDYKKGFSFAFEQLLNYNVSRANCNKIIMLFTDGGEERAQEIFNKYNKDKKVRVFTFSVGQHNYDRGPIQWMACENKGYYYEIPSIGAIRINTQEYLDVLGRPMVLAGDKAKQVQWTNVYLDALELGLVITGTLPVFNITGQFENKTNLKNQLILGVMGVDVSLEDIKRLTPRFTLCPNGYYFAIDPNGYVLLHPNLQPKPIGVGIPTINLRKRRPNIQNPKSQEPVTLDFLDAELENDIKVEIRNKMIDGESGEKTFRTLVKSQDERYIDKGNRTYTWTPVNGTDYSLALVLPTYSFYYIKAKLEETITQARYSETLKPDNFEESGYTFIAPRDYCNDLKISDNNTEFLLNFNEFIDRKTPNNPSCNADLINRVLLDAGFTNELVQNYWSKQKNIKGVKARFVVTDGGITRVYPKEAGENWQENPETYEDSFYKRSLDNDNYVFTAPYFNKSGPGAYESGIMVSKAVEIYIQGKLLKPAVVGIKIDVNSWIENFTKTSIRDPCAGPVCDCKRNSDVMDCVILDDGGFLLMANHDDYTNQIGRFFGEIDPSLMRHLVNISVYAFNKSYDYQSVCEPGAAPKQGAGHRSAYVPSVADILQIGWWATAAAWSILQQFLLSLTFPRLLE
T1 sequence (P54289 957-1103 partner limits assumed): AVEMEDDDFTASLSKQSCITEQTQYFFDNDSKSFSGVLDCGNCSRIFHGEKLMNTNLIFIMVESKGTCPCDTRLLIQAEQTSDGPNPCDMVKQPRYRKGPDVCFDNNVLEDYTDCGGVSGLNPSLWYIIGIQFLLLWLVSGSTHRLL
T1 sequence (P54284 whole entry partner): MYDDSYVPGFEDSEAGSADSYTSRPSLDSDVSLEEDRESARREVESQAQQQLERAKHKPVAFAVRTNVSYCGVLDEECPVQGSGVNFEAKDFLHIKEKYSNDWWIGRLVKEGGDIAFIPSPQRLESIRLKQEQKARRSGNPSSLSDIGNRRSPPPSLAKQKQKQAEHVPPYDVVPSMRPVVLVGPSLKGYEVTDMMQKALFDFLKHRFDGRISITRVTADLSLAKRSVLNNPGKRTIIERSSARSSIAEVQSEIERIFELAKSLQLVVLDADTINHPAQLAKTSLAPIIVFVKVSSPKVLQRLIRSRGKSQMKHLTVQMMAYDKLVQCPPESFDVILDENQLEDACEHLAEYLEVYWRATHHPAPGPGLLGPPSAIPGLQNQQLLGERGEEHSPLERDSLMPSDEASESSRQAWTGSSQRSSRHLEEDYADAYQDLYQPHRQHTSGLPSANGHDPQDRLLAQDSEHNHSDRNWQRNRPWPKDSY

Row | inhibition at 1 µM [%] | inhibition at 10 µM [%] | IC50 [nM] | Inhibition of Calcium Flux in IMR-32 Cells % Inhibition at 1 μM [%] | Inhibition of Calcium Flux in IMR-32 Cells % Inhibition at 10 μM [%] | SMILES
1 | 34 | 81 | – | – | – | CC(C)CC(NC(=O)N1CCCCCC1)C(=O)NC(Cc1ccc(OCc2ccccc2)cc1)C(=O)NC(C)CN(C)C (stereo not drawn) [Example 230, Azepane-1-carboxylic acid {1-[2-(4-benzyloxy-phenyl)-1-(2-dimethylamino-1-methyl-ethylcarbamoyl)-ethylcarbamoyl]-3-methyl-butyl}-amide]
2 | 32 | 67 | – | – | – | CC(C)CC(NC(=O)N1CCCCCC1)C(=O)NC(Cc1ccc(OCc2ccccc2)cc1)C(=O)N1CCCC(O)C1 (stereo not drawn) [Example 234, Azepane-1-carboxylic acid {1-[1-(4-benzyloxy-benzyl)-2-(3-hydroxy-piperidin-1-yl)-2-oxo-ethylcarbamoyl]-3-methyl-butyl}-amide]
3 | 22 | 23 | – | – | – | CC(C)CC(NC(=O)N1CCCCCC1)C(=O)NC(Cc1ccc(OCc2ccccc2)cc1)C(=O)NC(C)CNCC(C)N (stereo not drawn) [Example 239, Azepane-1-carboxylic acid {1-[1-[2-(2-amino-propylamino)-1-methyl-ethylcarbamoyl]-2-(4-benzyloxy-phenyl)-ethylcarbamoyl]-3-methyl-butyl}-amide]
4 | – | – | – | 23 | – | CC(C)C[C@H](NC(=O)N1CCCCCC1)C(=O)N[C@@H](Cc1ccc(OCc2ccccc2)cc1)C(=O)NCC(C)NC(C)C (stereo partly drawn) [Example 242]
5 | 48 | 89 | – | – | – | CCC(C)NC(=O)C(Cc1ccc(OCc2ccccc2)cc1)NC(=O)C(CC(C)C)NC(=O)N1CCCCCC1 (stereo not drawn) [Example 243, Azepane-1-carboxylic acid {1-[2-(4-benzyloxy-phenyl)-1-sec-butylcarbamoyl-ethylcarbamoyl]-3-methyl-butyl}-amide]
6 | – | – | – | 24 | 73 | CC(=O)N[C@H]1CCN(C(=O)[C@H](Cc2ccc(OCc3ccccc3)cc2)NC(=O)[C@H](CC(C)C)NC(=O)N2CCCCCC2)C1 [Example 244]
7 | 57 | 89 | – | – | – | CCC(COC)NC(=O)C(Cc1ccc(OCc2ccccc2)cc1)NC(=O)C(CC(C)C)NC(=O)N1CCCCCC1 (stereo not drawn) [Example 245, Azepane-1-carboxylic acid {1-[2-(4-benzyloxy-phenyl)-1-(1-methoxymethyl-propylcarbamoyl)-ethylcarbamoyl]-3-methyl-butyl}-amide]
8 | – | – | 270 | – | – | CC(C)CC(NC(=O)N1CCCCCC1)C(=O)NC(Cc1ccc(OCc2ccccc2)cc1)C(=O)NCC1CCN(Cc2ccccc2)C1 (stereo not drawn) [Example 250, Azepane-1-carboxylic acid (1-{2-(4-benzyloxy-phenyl)-1-[(1-benzyl-pyrrolidin-3-ylmethyl)-carbamoyl]-ethylcarbamoyl}-3-methyl-butyl)-amide]
9 | – | – | 740 | – | – | CC(C)C[C@H](NC(=O)N1CCCCCC1)C(=O)N[C@@H](Cc1ccc(OCc2ccccc2)cc1)C(=O)N(CCO)Cc1ccccc1 [Example 251, S-(R*,R*)]-Azepane-1-carboxylic acid {1-[1-[benzyl-(2-hydroxy-ethyl)-carbamoyl]-2-(4-benzyloxy-phenyl)-ethylcarbamoyl]-3-methyl-butyl}-amide]
10 | – | – | 280 | – | – | CC(C)C[C@H](NC(=O)N1CCCCCC1)C(=O)N[C@@H](Cc1ccc(OCc2ccccc2)cc1)C(=O)NCCNCc1ccccc1 [Example 252, [S-(R*,R*)]-Azepane-1-carboxylic acid {1-[1-(2-benzylamino-ethylcarbamoyl)-2-(4-benzyloxy-phenyl)-ethylcarbamoyl]-3-methyl-butyl}-amide]
11 | 39 | 83 | 1600 | – | – | CC(C)C[C@H](NC(=O)N1CCCCCC1)C(=O)N[C@@H](Cc1ccc(OCc2ccccc2)cc1)C(=O)Nc1cccnc1 [Example 254, [S-(R*,R*)]-Azepane-1-carboxylic acid {1-[2-(4-benzyloxy-phenyl)-1-(pyridin-3-ylcarbamoyl)-ethylcarbamoyl]-3-methyl-butyl}-amide]
12 | – | – | 4300 | – | – | CC(C)C[C@H](NC(=O)N1CCCCCC1)C(=O)N[C@@H](Cc1ccc(OCc2ccccc2)cc1)C(=O)NCCCO [Example 255, [S-(R*,R*)]-Azepane-1-carboxylic acid {1-[2-(4-benzyloxy-phenyl)-1-(3-hydroxy-propylcarbamoyl)-ethylcarbamoyl]-3-methyl-butyl}-amide]
13 | – | – | 1500 | – | – | CC(C)CC(NC(=O)N1CCCCCC1)C(=O)NC(Cc1ccc(OCc2ccccc2)cc1)C(=O)N1CCCC(CO)C1 (stereo not drawn) [Example 256, Azepane-1-carboxylic acid {1-[1-(4-benzyloxy-benzyl)-2-(3-hydroxymethyl-piperidin-1-yl)-2-oxo-ethylcarbamoyl]-3-methyl-butyl}-amide]
14 | – | – | 3600 | – | – | CC(C)C[C@H](NC(=O)N1CCCCCC1)C(=O)N[C@@H](Cc1ccc(OCc2ccccc2)cc1)C(=O)NC1CCNC1 (stereo partly drawn) [Example 258, [S-(R*,R*)]-Azepane-1-carboxylic acid {1-[2-(4-benzyloxy-phenyl)-1-(pyrrolidin-3-ylcarbamoyl)-ethylcarbamoyl]-3-methyl-butyl}-amide]

Further lines, the molecule ahead of its results:

Row | SMILES | inhibition at 1 µM [%] | inhibition at 10 µM [%] | IC50 [nM] | Inhibition of Calcium Flux in IMR-32 Cells % Inhibition at 1 μM [%] | Inhibition of Calcium Flux in IMR-32 Cells % Inhibition at 10 μM [%]
15 | CC(C)C[C@H](NC(=O)N1CCCCCC1)C(=O)N[C@@H](Cc1ccc(OCc2ccccc2)cc1)C(=O)NC1CCCCCC1 [Example 208, [S-(R*,R*)]-Azepane-1-carboxylic acid {1-[2-(4-benzyloxy-phenyl)-1-cycloheptylcarbamoyl-ethylcarbamoyl]-3-methyl-butyl}-amide] | 38 | 81 | 1800 | – | –
16 | CC(C)C[C@H](NC(=O)N1CCCCCC1)C(=O)N[C@@H](Cc1ccc(OCc2ccccc2)cc1)C(=O)NC1CC1 [Example 209, [S-(R*,R*)]-Azepane-1-carboxylic acid {1-[2-(4-benzyloxy-phenyl)-1-cyclopropylcarbamoyl-ethylcarbamoyl]-3-methyl-butyl}-amide] | 27 | 82 | 2500 | – | –
17 | COc1ccc(NC(=O)[C@H](Cc2ccc(OCc3ccccc3)cc2)NC(=O)[C@H](CC(C)C)NC(=O)N2CCCCCC2)cc1 [Example 210, [S-(R*,R*)]-Azepane-1-carboxylic acid {1-[2-(4-benzyloxy-phenyl)-1-(4-methoxy-phenylcarbamoyl)-ethylcarbamoyl]-3-methyl-butyl}-amide] | 39 | – | 1500 | – | –
18 | CC(C)C[C@H](NC(=O)N1CCCCCC1)C(=O)N[C@@H](Cc1ccc(OCc2ccccc2)cc1)C(=O)Nc1ccc(CCO)cc1 [Example 211, [S-(R*,R*)]-Azepane-1-carboxylic acid (1-{2-(4-benzyloxy-phenyl)-1-[4-(2-hydroxy-ethyl)-phenylcarbamoyl]-ethylcarbamoyl}-3-methyl-butyl)-amide] | 49 | 81 | 1100 | – | –
19 | CC(=O)c1ccc(NC(=O)[C@H](Cc2ccc(OCc3ccccc3)cc2)NC(=O)[C@H](CC(C)C)NC(=O)N2CCCCCC2)cc1 [Example 212, [S-(R*,R*)]-Azepane-1-carboxylic acid {1-[1-(4-acetyl-phenylcarbamoyl)-2-(4-benzyloxy-phenyl)-ethylcarbamoyl]-3-methyl-butyl}-amide] | 34 | 66 | 1900 | – | –
20 | CC(C)C[C@H](NC(=O)N1CCCCCC1)C(=O)N[C@@H](Cc1ccc(OCc2ccccc2)cc1)C(=O)Nc1ccc(Oc2ccccc2)cc1 [Example 213, [S-(R*,R*)]-Azepane-1-carboxylic acid {1-[2-(4-benzyloxy-phenyl)-1-(4-phenoxy-phenylcarbamoyl)-ethylcarbamoyl]-3-methyl-butyl}-amide] | 30 | 33 | 2400 | – | –
21 | CC(C)C[C@H](NC(=O)N1CCCCCC1)C(=O)N[C@@H](Cc1ccc(OCc2ccccc2)cc1)C(=O)Nc1cccc(C(F)(F)F)c1 [Example 214, [S-(R*,R*)]-Azepane-1-carboxylic acid {1-[2-(4-benzyloxy-phenyl)-1-(3-trifluoromethyl-phenylcarbamoyl)-ethylcarbamoyl]-3-methyl-butyl}-amide] | 42 | 51 | 1400 | – | –
22 | CC(C)C[C@H](NC(=O)N1CCCCCC1)C(=O)N[C@@H](Cc1ccc(OCc2ccccc2)cc1)C(=O)NCc1ccc(CN)cc1 [Example 217, [S-(R*,R*)]-Azepane-1-carboxylic acid {1-[1-(4-aminomethyl-benzylcarbamoyl)-2-(4-benzyloxy-phenyl)-ethylcarbamoyl]-3-methyl-butyl}-amide] | 35 | 75 | 5000 | – | –
23 | CC(C)CC(NC(=O)N1CCCCCC1)C(=O)NC(Cc1ccc(OCc2ccccc2)cc1)C(=O)N1CCCC1CNc1ccccc1 (stereo not drawn) [Example 218, Azepane-1-carboxylic acid {1-[1-(4-benzyloxy-benzyl)-2-oxo-2-(2-phenylaminomethyl-pyrrolidin-1-yl)-ethylcarbamoyl]-3-methyl-butyl}-amide] | 62 | 93 | – | – | –
24 | CC(C)CC(NC(=O)N1CCCCCC1)C(=O)NC(Cc1ccc(OCc2ccccc2)cc1)C(=O)NCC(O)CN (stereo not drawn) [Example 219, Azepane-1-carboxylic acid {1-[1-(3-amino-2-hydroxy-propylcarbamoyl)-2-(4-benzyloxy-phenyl)-ethylcarbamoyl]-3-methyl-butyl}-amide] | 6 | 23 | – | – | –
25 | CC(C)CC(NC(=O)N1CCCCCC1)C(=O)NC(Cc1ccc(OCc2ccccc2)cc1)C(=O)NC(CO)C(O)c1ccccc1 (stereo not drawn) [Example 227, [S-(R*,R*)]-Azepane-1-carboxylic acid {1-[2-(4-benzyloxy-phenyl)-1-(2-hydroxy-1-hydroxymethyl-2-phenyl-ethylcarbamoyl)-ethylcarbamoyl]-3-methyl-butyl}-amide] | – | – | – | 19 | 86
